# Measurements published in patent publication US7652020B2, “Compounds for the treatment of inflammatory disorders” (Schering Corporation, priority 2004, dated 2010).
# Target: T1, purified catalytic domain of recombinant human TACE (rhTACEc) (Homo sapiens, UniProt P78536, N452Q/S266A)
# T1 construct: Residue 215 to 477 with two mutation (S266A and N452Q) and a 6×His tail; 6xHis (C); made in house; host or cells: baculovirus/Hi5 insect cells
# Assay: TACE kinetic assay: cleavage of internally quenched peptide substrate SPDL-3, fluorescence
# Type: biochemical
# Conditions: TACE inhibitory activity, class symbols; read-out: Ki
# T1 sequence (P78536 215-477 S266A/N452Q): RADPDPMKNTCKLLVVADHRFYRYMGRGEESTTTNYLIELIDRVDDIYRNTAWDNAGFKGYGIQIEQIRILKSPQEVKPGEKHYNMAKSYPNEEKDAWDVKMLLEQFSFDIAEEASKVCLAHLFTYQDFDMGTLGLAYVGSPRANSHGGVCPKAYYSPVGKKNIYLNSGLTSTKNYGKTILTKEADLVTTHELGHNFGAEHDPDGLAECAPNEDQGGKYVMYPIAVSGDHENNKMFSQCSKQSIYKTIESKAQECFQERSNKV
row,Ki [nM],SMILES
1,20 to 100,C[C@@H](NC(=O)[C@H](O)[C@@H](O)C(=O)N1CCOCC1)c1ccc(-n2cccn2)cc1 [Compound 2422]
2,100 to 1000,C[C@@H](NC(=O)[C@H](O)[C@@H](O)C(=O)N1CCNCC1)c1ccc(-n2cccn2)cc1 [Compound 2423]
3,100 to 1000,C[C@@H](NC(=O)[C@H](O)[C@@H](O)C(=O)N1C[C@H]2CNC[C@H]2C1)c1ccc(-n2cccn2)cc1 [Compound 2424]
4,100 to 1000,C[C@@H](NC(=O)[C@H](O)[C@@H](O)C(=O)N1CCN(c2ccccc2)C(=O)C1)c1ccc(-n2cccn2)cc1 [Compound 2425]
5,< 20,C[C@@H](NC(=O)[C@H](O)[C@@H](O)C(=O)N1CCc2ccccc2C1)c1ccc(-n2cccn2)cc1 [Compound 2438]
6,< 20,C[C@@H](NC(=O)[C@H](O)[C@@H](O)C(=O)N1CCc2ccc(F)cc2C1)c1ccc(-n2cccn2)cc1 [Compound 2439]
7,< 20,COc1cc2c(cc1OC)C(c1ccccc1)N(C(=O)[C@H](O)[C@@H](O)C(=O)N[C@H](C)c1ccc(-n3cccn3)cc1)CC2 (stereo partly drawn) [Compound 2442]
8,< 20,C[C@@H](NC(=O)[C@H](O)[C@@H](O)C(=O)N1CCc2cc(Cl)ccc2C1c1ccccc1)c1ccc(-n2cccn2)cc1 (stereo partly drawn) [Compound 2444]
9,< 20,CNc1nc(C2c3ccccc3CN2C(=O)[C@H](O)[C@@H](O)C(=O)N[C@H](C)c2ccc(-n3cccn3)cc2)cs1 (stereo partly drawn) [Compound 2445]
10,> 1000,N#Cc1cc(F)ccc1N1CCC(CNC(=O)[C@H](O)[C@@H](N)C(=O)N2CCCC2)CC1 [Compound 2456]
11,20 to 100,CO[C@@H](C(=O)NCc1ccc(-c2ccc(F)cc2OCCC(C)(C)C)cc1)[C@@H](O)C(=O)N1Cc2cccnc2C1 [Compound 2475]
12,20 to 100,CO[C@@H](C(=O)NCc1ccc(-c2ccc(F)cc2OCCC2CCCCC2)cc1)[C@@H](O)C(=O)N1Cc2cccnc2C1 [Compound 2476]
13,100 to 1000,CCOc1cc(F)ccc1-c1ccc(CNC(=O)[C@H](OC)[C@@H](O)C(=O)N2Cc3cccnc3C2)cc1 [Compound 2477]
14,> 1000,C[C@H](c1ccc(-n2cccn2)cc1)N1CCO[C@H]([C@@H](O)C(=O)N2CCCC2c2ccccc2)C1=O (stereo partly drawn) [Compound 2478]
15,> 1000,CC(c1cccc(Cl)c1)N(C(=O)[C@H](O)[C@@H](O)C(=O)N[C@H](C)c1ccc(-n2cccn2)cc1)C1CC1 (stereo partly drawn) [Compound 2483]
16,> 1000,CCCN(C(=O)[C@H](O)[C@@H](O)C(=O)N[C@H](C)c1ccc(-n2cccn2)cc1)C(C)c1cccc(Cl)c1 (stereo partly drawn) [Compound 2486]
17,20 to 100,CCC(c1cccc(Cl)c1)N(C)C(=O)[C@H](O)[C@@H](O)C(=O)N[C@H](C)c1ccc(-n2cccn2)cc1 (stereo partly drawn) [Compound 2487]
18,100 to 1000,C[C@@H](NC(=O)[C@H](O)[C@@H](O)C(=O)N1CCC(=O)N1c1cccc(Cl)c1)c1ccc(-n2cccn2)cc1 [Compound 2494]
19,100 to 1000,C[C@@H](NC(=O)[C@H](O)[C@@H](O)C(=O)N1CCCN1c1cccc(Cl)c1)c1ccc(-n2cccn2)cc1 [Compound 2495]
20,< 20,C[C@@H](NC(=O)[C@H](O)[C@@H](O)C(=O)N1CCC[C@@H]1c1cn2ccccc2n1)c1ccc(-n2cccn2)cc1 [Compound 2507]
21,< 20,CNc1nc([C@H]2CC(F)(F)CN2C(=O)[C@H](O)[C@@H](O)C(=O)N[C@H](C)c2ccc(-n3cccn3)cc2)cs1 [Compound 2567]
22,< 20,CC#CCOc1cc([C@@H](C)NC(=O)[C@H](O)[C@@H](O)C(=O)N2CC=CC2c2cccc(Cl)c2)ccc1-n1cccn1 (stereo partly drawn) [Compound 2572]
23,< 20,CC(=O)Nc1nc([C@H]2CCCN2C(=O)[C@H](O)[C@@H](O)C(=O)N[C@H](C)c2ccc(-n3cccn3)cc2)cs1 [Compound 2579]
24,< 20,C[C@@H](NC(=O)[C@H](O)[C@@H](O)C(=O)N1CCC[C@@H]1c1csc(NS(C)(=O)=O)n1)c1ccc(-n2cccn2)cc1 [Compound 2581]
25,< 20,CNc1nc([C@H]2c3ccccc3CCN2C(=O)[C@H](O)[C@@H](O)C(=O)N[C@H](C)c2ccc(-n3cccn3)cc2)cs1 [Compound 2586]
26,< 20,CCNc1nc([C@H]2c3ccccc3CCN2C(=O)[C@H](O)[C@@H](O)C(=O)N[C@H](C)c2ccc(-n3cccn3)cc2)cs1 [Compound 2587]
27,< 20,CC(C)Nc1nc([C@@H]2c3ccc(Cl)cc3CCN2C(=O)[C@H](O)[C@@H](O)C(=O)N[C@H](C)c2ccc(-n3cccn3)cc2)cs1 [Compound 2590]
28,< 20,Cc1nc([C@H]2CCCN2C(=O)[C@H](O)[C@@H](O)C(=O)N[C@H](C)c2ccc(-n3cccn3)cc2)cs1 [Compound 2591]
29,< 20,CC(C)Nc1nc([C@@H]2c3ccccc3CN2C(=O)[C@H](O)[C@@H](O)C(=O)N[C@H](C)c2ccc(-n3cccn3)cc2)cs1 [Compound 2593]
30,< 20,C[C@@H](NC(=O)[C@H](O)[C@@H](O)C(=O)N1CCC[C@@H]1c1ccn(-c2ccccc2)n1)c1ccc(-n2cccn2)cc1 [Compound 2597]

# Further lines, the molecule ahead of its results:
row,SMILES,Ki [nM]
1,C[C@@H](NC(=O)[C@H](O)[C@@H](O)C(=O)N1CCCc2ccccc21)c1ccc(-n2cccn2)cc1 [Compound 2421],100 to 1000
2,C[C@@H](NC(=O)[C@](C)(O)[C@@H](O)C(=O)N1CCc2ccc(F)cc2C1)c1ccc(-n2cccn2)cc1 [Compound 2440],20 to 100
3,C[C@@H](NC(=O)[C@H](O)[C@@H](O)C(=O)N1CCc2ccccc21)c1ccc(-n2cccn2)cc1 [Compound 2441],20 to 100
4,C[C@@H](NC(=O)[C@H](O)[C@@H](O)C(=O)N1CCc2cc(Cl)c(Cl)cc2C1c1ccccc1)c1ccc(-n2cccn2)cc1 (stereo partly drawn) [Compound 2443],< 20
5,Cc1cccc2c1CN(C(=O)[C@H](O)[C@@](C)(O)C(=O)N[C@H](C)c1ccc(-n3cccn3)cc1)C2 [Compound 2446],20 to 100
6,N#Cc1cc(F)ccc1N1CCC(CNC(=O)[C@H](N)[C@@H](O)C(=O)N2CCCC2)CC1 [Compound 2460],> 1000
7,C[C@H](c1ccc(-n2cccn2)cc1)N1CCO[C@H]([C@@H](O)C(=O)N2Cc3ccccc3C2)C1=O [Compound 2474],> 1000
8,CC(c1cccc(Cl)c1)N(C)C(=O)[C@H](O)[C@@H](O)C(=O)N[C@H](C)c1ccc(-n2cccn2)cc1 (stereo partly drawn) [Compound 2480],20 to 100
9,CCN(C(=O)[C@H](O)[C@@H](O)C(=O)N[C@H](C)c1ccc(-n2cccn2)cc1)C(C)c1cccc(Cl)c1 (stereo partly drawn) [Compound 2481],100 to 1000
10,CC(C)CN(C(=O)[C@H](O)[C@@H](O)C(=O)N[C@H](C)c1ccc(-n2cccn2)cc1)C(C)c1cccc(Cl)c1 (stereo partly drawn) [Compound 2482],> 1000
11,CC(c1cccc(Cl)c1)N(CC1CC1)C(=O)[C@H](O)[C@@H](O)C(=O)N[C@H](C)c1ccc(-n2cccn2)cc1 (stereo partly drawn) [Compound 2485],> 1000
12,C[C@@H](NC(=O)[C@H](O)[C@@H](O)C(=O)N(C)C1Cc2ccccc2C1)c1ccc(-n2cccn2)cc1 [Compound 2489],20 to 100
13,C[C@@H](NC(=O)[C@H](O)[C@@H](O)C(=O)N1CCCN1c1ccccc1)c1ccc(-n2cccn2)cc1 [Compound 2496],100 to 1000
14,C[C@@H](NC(=O)[C@H](O)[C@@H](O)C(=O)N1CCC[C@@H]1c1csc2nccn12)c1ccc(-n2cccn2)cc1 [Compound 2506],< 20
15,CCOC(=O)c1cccn2cc([C@H]3CCCN3C(=O)[C@H](O)[C@@H](O)C(=O)N[C@H](C)c3ccc(-n4cccn4)cc3)nc12 [Compound 2508],20 to 100
16,CC#CCOc1cc([C@@H](C)NC(=O)[C@H](O)[C@@H](O)C(=O)N2CCC[C@@H]2c2cccc(Cl)c2)ccc1-n1cccn1 [Compound 2571],< 20
17,C[C@@H](NC(=O)[C@H](O)[C@@H](O)C(=O)N1CCC[C@@H]1c1csc(N(C)S(C)(=O)=O)n1)c1ccc(-n2cccn2)cc1 [Compound 2582],< 20
18,C[C@@H](NC(=O)[C@H](O)[C@@H](O)C(=O)N1CCc2ccccc2[C@@H]1c1csc(N)n1)c1ccc(-n2cccn2)cc1 [Compound 2585],< 20
19,CC(C)Nc1nc([C@H]2c3ccccc3CCN2C(=O)[C@H](O)[C@@H](O)C(=O)N[C@H](C)c2ccc(-n3cccn3)cc2)cs1 [Compound 2588],< 20
20,CC(C)Nc1nc([C@H]2c3ccc(Cl)cc3CCN2C(=O)[C@H](O)[C@@H](O)C(=O)N[C@H](C)c2ccc(-n3cccn3)cc2)cs1 [Compound 2589],< 20
21,CC(C)Nc1nc([C@H]2c3ccccc3CN2C(=O)[C@H](O)[C@@H](O)C(=O)N[C@H](C)c2ccc(-n3cccn3)cc2)cs1 [Compound 2592],< 20
22,CCNc1nc([C@H]2c3ccccc3CN2C(=O)[C@H](O)[C@@H](O)C(=O)N[C@H](C)c2ccc(-n3cccn3)cc2)cs1 [Compound 2594],< 20
23,CCNc1nc([C@@H]2c3ccccc3CN2C(=O)[C@H](O)[C@@H](O)C(=O)N[C@H](C)c2ccc(-n3cccn3)cc2)cs1 [Compound 2595],< 20
24,C[C@@H](NC(=O)[C@H](O)[C@@H](O)C(=O)N1CCc2cc(Cl)ccc2C1c1cc[nH]n1)c1ccc(-n2cccn2)cc1 (stereo partly drawn) [Compound 2596],< 20
25,C[C@@H](NC(=O)[C@H](O)[C@@H](O)C(=O)N1CCC[C@@H]1c1ccn(-c2cccc(F)c2)n1)c1ccc(-n2cccn2)cc1 [Compound 2598],< 20
26,C[C@@H](NC(=O)[C@H](O)[C@@H](O)C(=O)N1CCC[C@@H]1c1ccn(-c2ccc(F)cc2)n1)c1ccc(-n2cccn2)cc1 [Compound 2599],< 20
27,C[C@@H](NC(=O)[C@H](O)[C@@H](O)C(=O)N1CCCC1c1nccs1)c1ccc(-n2cccn2)cc1 (stereo partly drawn) [Compound 2600],< 20

# Same assay, conditions: TACE, representative compounds, numeric values; read-out: Ki
row,Ki [nM],SMILES
1,0.25,CC#CCOc1cc([C@@H](C)NC(=O)[C@H](O)[C@@H](O)C(=O)N2Cc3cccnc3C2)ccc1-n1cccn1 [drawing 1292]
2,0.38,CNc1nc([C@H]2CCCN2C(=O)[C@H](O)[C@@H](O)C(=O)N[C@H](C)c2ccc(-n3cccn3)cc2)c(S(C)(=O)=O)s1 [drawing 1294]
3,0.49,C[C@@H](NC(=O)[C@H](O)[C@@H](O)C(=O)N1CC=C[C@@H]1c1cccc(Cl)c1)c1ccc(-n2cccn2)cc1 [drawing 1295]
